According to patent US6737383B1, “Herbicidal oxadiazolidines” (priority 1999, dated 2004):

Tests used:
[1] = system: pigweed; assay: Test B pre/postemergence pigweed; type: in vivo, Amaranthus retroflexus
In short: (§1)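 Herbicidal effect was estimated by eye on a ten-point control scale after plants spent twelve to sixteen days in a greenhouse following soil or foliar treatment. Foliar sprays targeted plants at one to four leaves; all doses were formulated in a non-phytotoxic solvent with surfactant.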

[2] = system: purple nutsedge; assay: Test B pre/postemergence purple nutsedge; type: in vivo, Cyperus rotundus
In short: as §1

[3] = system: crabgrass; assay: Test B pre/postemergence crabgrass; type: in vivo, Digitaria sanguinalis
In short: as §1

[4] = system: bedstraw; assay: Test B pre/postemergence bedstraw; type: in vivo, Galium aparine
In short: as §1

[5] = system: wheat; assay: Test B pre/postemergence wheat; type: in vivo, Triticum aestivum
In short: as §1

[6] = system: sugar beet; assay: Test B pre/postemergence sugar beet; type: in vivo, Beta vulgaris
In short: as §1

[7] = system: morningglory; assay: Test B pre/postemergence morningglory; type: in vivo, Ipomoea hederacea
In short: as §1

[8] = system: rape; assay: Test B pre/postemergence rape; type: in vivo, Brassica napus
In short: as §1

[9] = system: corn; assay: Test B pre/postemergence corn; type: in vivo, Zea mays
In short: as §1

[10] = system: soybean; assay: Test B pre/postemergence soybean; type: in vivo, Glycine max
In short: as §1

[11] = system: cocklebur; assay: Test B pre/postemergence cocklebur; type: in vivo, Xanthium strumarium
In short: as §1

[12] = system: wild oat; assay: Test B pre/postemergence wild oat; type: in vivo, Avena fatua
In short: as §1

[13] = system: blackgrass; assay: Test B pre/postemergence blackgrass; type: in vivo, Alopecurus myosuroides
In short: as §1

[14] = system: giant foxtail; assay: Test B pre/postemergence giant foxtail; type: in vivo, Setaria faberii
In short: as §1

[15] = system: surinam grass; assay: Test B pre/postemergence surinam grass; type: in vivo, Brachiaria decumbens
In short: as §1

[16] = system: velvetleaf; assay: Test B pre/postemergence velvetleaf; type: in vivo, Abutilon theophrasti
In short: as §1

[17] = Postemergence, Rate 62 g/ha, scale 0 to 10, 0 is no effect, 10 is complete control
[18] = Preemergence, Rate 125 g/ha, scale of 0 to 10 where 0 is no effect and 10 is complete control
[19] = Preemergence, Rate 250 g/ha, scale 0 (no effect) to 10 (complete control)
[20] = Rate 62 g/ha, Preemergence, scale 0 to 10
[21] = Rate 250 g/ha, Postemergence, scale 0 to 10, 0 is no effect, 10 is complete control
[22] = Rate 500 g/ha, Postemergence, scale 0 to 10, 0 is no effect, 10 is complete control
[23] = Rate 500 g/ha, Preemergence, scale 0 to 10 (0 no effect, 10 complete control)
[24] = Postemergence, Rate 125 g/ha, scale of 0 to 10 where 0 is no effect and 10 is complete control

CC(C)N(C(=O)n1oc(=O)n(CCN(C)C(=O)c2ccccc2)c1=O)c1ccccc1 [Compound 761]
8: Giant foxtail plant response rating [14, 19]
0: Plant response rating, Redroot pigweed [1, 17] | Plant response rating, Redroot pigweed [1, 18] | Redroot pigweed plant response rating [1, 19] | Redroot pigweed plant response rating [1, 20] | Redroot pigweed plant response rating [1, 23] | Plant response rating, Nutsedge [2, 17] | Nutsedge plant response rating [2, 24] | Plant response rating, Nutsedge [2, 18] | Nutsedge plant response rating [2, 19] | Nutsedge plant response rating [2, 20] | Nutsedge plant response rating [2, 21] | Nutsedge plant response rating [2, 22] | Nutsedge plant response rating [2, 23] | Crabgrass plant response rating [3, 21] | Crabgrass plant response rating [3, 22] | Bedstraw plant response rating [4, 24] | Plant response rating, Bedstraw [4, 18] | Bedstraw plant response rating [4, 19] | Bedstraw plant response rating [4, 20] | Bedstraw plant response rating [4, 21] | Bedstraw plant response rating [4, 23] | Plant response rating, Wheat [5, 17] | Plant response rating, Wheat [5, 18] | Wheat plant response rating [5, 19] | Wheat plant response rating [5, 20] | Wheat plant response rating [5, 21] | Wheat plant response rating [5, 22] | Wheat plant response rating [5, 23] | Plant response rating, Sugarbeets [6, 18] | Sugarbeets plant response rating [6, 19] | Sugarbeets plant response rating [6, 20] | Sugarbeets plant response rating [6, 23] | Plant response rating, Morningglory [7, 17] | Plant response rating, Morningglory [7, 18] | Morningglory plant response rating [7, 19] | Morningglory plant response rating [7, 20] | Morningglory plant response rating [7, 23] | Plant response rating, Rape [8, 17] | Rape plant response rating [8, 24] | Plant response rating, Rape [8, 18] | Rape plant response rating [8, 19] | Rape plant response rating [8, 20] | Rape plant response rating [8, 21] | Rape plant response rating [8, 22] | Rape plant response rating [8, 23] | Plant response rating, Corn [9, 17] | Corn plant response rating [9, 24] | Plant response rating, Corn [9, 18] | Corn plant response rating [9, 19] | Corn plant response rating [9, 20] | Corn plant response rating [9, 21] | Corn plant response rating [9, 22] | Corn plant response rating [9, 23] | Plant response rating, Soybean [10, 18] | Soybean plant response rating [10, 19] | Soybean plant response rating [10, 20] | Soybean plant response rating [10, 23] | Plant response rating, Cocklebur [11, 17] | Cocklebur plant response rating [11, 24] | Plant response rating, Cocklebur [11, 18] | Cocklebur plant response rating [11, 19] | Cocklebur plant response rating [11, 20] | Cocklebur plant response rating [11, 21] | Cocklebur plant response rating [11, 22] | Cocklebur plant response rating [11, 23] | Plant response rating, Wild oats [12, 17] | Plant response rating, Wild oats [12, 18] | Wild oats plant response rating [12, 19] | Wild oats plant response rating [12, 20] | Wild oats plant response rating [12, 21] | Wild oats plant response rating [12, 22] | Wild oats plant response rating [12, 23] | Plant response rating, Blackgrass [13, 17] | Blackgrass plant response rating [13, 24] | Plant response rating, Blackgrass [13, 18] | Blackgrass plant response rating [13, 19] | Blackgrass plant response rating [13, 20] | Blackgrass plant response rating [13, 21] | Blackgrass plant response rating [13, 22] | Blackgrass plant response rating [13, 23] | Plant response rating, Giant foxtail [14, 17] | Giant foxtail plant response rating [14, 24] | Plant response rating, Giant foxtail [14, 18] | Giant foxtail plant response rating [14, 20] | Plant response rating, B. signalgrass [15, 17] | B. signalgrass plant response rating [15, 24] | B. signalgrass plant response rating ([15]; Preemergence, Rate 62 g/ha, scale of 0 to 10 where 0 is no effect and 10 is complete control) | Plant response rating, B. signalgrass [15, 18] | B. signalgrass plant response rating [15, 19] | Plant response rating, Velvetleaf [16, 17] | Plant response rating, Velvetleaf [16, 18] | Velvetleaf plant response rating [16, 19] | Velvetleaf plant response rating [16, 20] | Velvetleaf plant response rating [16, 21] | Velvetleaf plant response rating [16, 22] | Velvetleaf plant response rating [16, 23]
9: Giant foxtail plant response rating [14, 23]
5: Crabgrass plant response rating [3, 19]
2: Plant response rating, Sugarbeets [6, 17] | Plant response rating, Soybean [10, 17]
6: Redroot pigweed plant response rating [1, 21] | Redroot pigweed plant response rating [1, 22] | Sugarbeets plant response rating [6, 22] | Morningglory plant response rating [7, 24]
7: Morningglory plant response rating [7, 21]
3: Plant response rating, Crabgrass [3, 18] | Crabgrass plant response rating [3, 20] | Crabgrass plant response rating [3, 23] | Bedstraw plant response rating [4, 22] | Sugarbeets plant response rating [6, 21] | Soybean plant response rating [10, 21] | Soybean plant response rating [10, 22] | Giant foxtail plant response rating [14, 22] | B. signalgrass plant response rating [15, 21] | B. signalgrass plant response rating [15, 22] | B. signalgrass plant response rating [15, 23]
